From EP1463487B1, “LIPOSOMAL DELIVERY OF VITAMIN E BASED COMPOUNDS” (RESEARCH DEVELOPMENT FOUNDATION, priority 2001, dated 2003)
“Also recorded” adds a separate entry of the source.

Tests used:
[1] = system: 66 cl.4-GFP cells; assay: Tumor growth of 66 cl.4-GFP mammary tumor cells implanted in Balb/c mice; settings: for mean tumor volume reduced in comparison to aerosol control: liposomal α-TEA/aerosol daily
Description: 66 cl.4-GFP cells were harvested by trypsinization, centrifuged, resuspended in McCoy's media, containing no supplements at a density of 2 X 10^5/100µl. Mice were injected in the inguinal area at a point equal distance between the 4th and 5th nipples on the right side using a 23 gauge needle.
50 mice were assigned (10 per group) to aerosol treatment, aerosol control, oral treatment, oral control, or to the no treatment group so that the average tumor volume for all groups were closely matched. […] Tumors were measured using calipers every other day, and volumes were calculated using the formula: volume (mm^3) = [width (mm)^2 X length (mm)] /2. Body weights were determined weekly.
Balb/c mice were injected with 200,000 66 cl.4 GFP cells subcutaneous in the mammary fat pad area between the 4th and 5th nipple on the right side of the body.
Mice are injected with 200,000 66cl.4 GFP murine mammary tumor cells as described on day 0. Treatments are initiated on day 9 when tumors reached 1-3 mm in size. […] Data represent the mean +/- Standard Error (SE), N = 10 mice for control and treatment groups.
Balb/c mice were injected s. c. with 2 X 10^5 66 cl.4-GFP cells in the inguinal area between the 4th and 5th nipple on the right side of the body. When tumors reached 2 x 2-4 x 4 mm (9 days after tumor injection), mice were placed into 5 groups ((Group 1: untreated control, Group 2: liposome/aerosol control, Group 3: liposomal α-TEA aerosol treatment, Group 4: peanut oil/gavage control, Group 5: α-TEA in peanut oil/gavage treatment) of 10 mice/group) such that the mean tumor volume of each group was closely matched. Daily treatments were initiated on day 9 after tumor injection.
Balb/c mice were injected with 200,000 66 cl.4 GFP cells subcutaneous in the mammary fat pad area between the 4th and 5th nipple on the right side of the body. […] Animals were treated with α-TEA in liposome, vitamin E succinate in liposome, or control liposome alone via aerosol, 7 days per week, for 21 days. Animals were given 75 mg compound via nebulization per day such that each animal received 36 µg compound per day.
The size of the tumors, 9 - 21 days after injection of 200,000 66 cl.4 GFP cells between the 4th and 5th nipple on the right side of each mouse, is determined. Treatments are initiated on day 9 after tumor inoculation. Each group consists of n=10 +/- SE. Gavage Treatment = Treatments of 5 mg of α-TEA in ethanol and peanut oil (0.1 ml volume) are administered daily starting on day 9 after tumor inoculation and continuing through day 21. Gavage Control = Mice received peanut oil and ethanol alone (0.ml volume)/daily, starting on day 9 after tumor inoculation and continuing through day 21. Data (tumor size) are depicted as the mean +/- standard error for days 9, 11, 13, 15, 17, 19, and 21.
Balb/c mice were injected with 200,000 66 cl.4 GFP cells subcutaneous in the mammary fat pad area between the 4th and 5th nipple on the right side of the body. […] Animals were treated with α-TEA in liposome, vitamin E succinate in liposome, or control liposome alone via oral gavage, 2 times per day, 7 days per week, for 21 days. Animals were given a total of 6 mg compound per day.

[2] = system: A2780 cisplatin-sensitive cell line; assay: Apoptosis of A2780 ovarian cancer cells in culture; type: cell-based, human; settings: treated in culture with α-TEA
[3] = system: Poly (ADP-Ribose) Polymerase (PARP); assay: Western immunoblot detection of PARP cleavage fragment; type: cell-based, mouse; settings: 48 hours
Description: Poly (ADP-Ribose) Polymerase cleavage was analyzed as an alternate method for detecting apoptosis. 66 cl.4-GFP cells were treated as described above for the DAPI assay. Following the PBS wash, cells were suspended in lysis buffer (1X PBS, 1% Nonidet P-40, 0.5% sodium deoxycholate, 0.1% sodium dodecyl sulfate (SDS), 1 µg/ml leupeptin, 1 µg/ml aprotinin, 1mM dithiothreitol (DTT), 2 mM sodium orthovanadate, 10 µg/ml phenylmethylsulfonyl fluoride (PMSF)) for 30 min at 4°C, vortexed, and supernatants collected by centrifugation at 15,000 X g for 20 min. Protein concentrations were determined using the Bio-Rad (Bradford) protein assay (Bio-Rad Laboratories, Hercules, CA), and samples (100 µg/lane) resolved on 7.5% SDS-polyacrylamide gels electrophoresed under reducing conditions.
Proteins were electroblotted onto a nitrocellulose membrane (0.2 µM pore Optitran BA-S-supported nitrocellulose; Schleicher and Schuell, Keene, NH). After transfer, membranes were blocked with blocking buffer [25 mM Tris-HCl (pH 8.0), 125 mM NaCl, 0.5% Tween-20, and 5% non-fat dry milk] for 45 min at room temperature. Immunoblotting was performed using 1 µg of primary rabbit anti-human Poly (ADP-Ribose) Polymerase antibody [PARP (H-250), Santa Cruz Biotechnology, Santa Cruz, CA], and horseradish peroxidase-conjugated goat anti-rabbit immunoglobulin was used as the secondary antibody (Jackson Immunoresearch Laboratory, West Grove, PA) at a 1:3,000 dilution. Horseradish peroxidase-labeled bands from washed blots were detected by enhanced chemiluminescence (Pierce, Rockford, IL) and autoradiography (Kodak BioMax film; Rochester, NY).

[4] = system: 66 cl.4-GFP cells; assay: Fluorescent lung micrometastases of 66 cl.4-GFP tumors in Balb/c mice; type: in vivo; settings: for Inhibition (%) Lung Metastases: Liposomal; for numbers of micrometastases (± S. E.): α-TEA EtOH/peanut oil by gavage 5 mg/day
Excerpt: Metastastic lesions in the five lung lobes were counted visually at time of sacrifice. Fluorescent green micro-metastatic cancer cell colonies in the left lung lobe and lymph nodes were counted using a Nikon fluorescence microscope (TE-200) with a 20 x objective (200 x magnification) and Image-Pro Plus (version 4.1; Media Cybernetics, Silver Spring, MD) software associated with the microscope. Fluorescent lesions were separated into three size grouping: <5 µm , 5-10 µm and >10 µm.
At sacrifice, the left lung lobe of each mouse of flash frozen and saves for detection of GFP expressing micrometatstic lesions via fluorescent microscopy.

[5] = system: proliferation biomarker KI-67; assay: KI-67 immunohistochemistry of tumor sections (cell proliferation); type: in vivo, Balb/c mice; settings: transplantable syngeneic mouse mammary cancer model, in comparison to controls
[6] = Aerosol, in nebulizer per mouse: α-TEA 5 mg/d, 9NC 2 µg/d, combination 5 mg+2µg/d

Compound: Cc1c(C)c2c(c(C)c1OCC(=O)O)CC[C@@](C)(CCC[C@H](C)CCC[C@H](C)CCCC(C)C)O2 [α-TEA, 2,5,7,8-tetramethyl-(2R-(4R,8R,12-trimethyltridecyl)chroman-6-yloxy) acetic acid]
- tumor size at the inoculation site versus gavage control ([1]; 5 mg/day/mouse α-TEA in ethanol and peanut oil by gavage): no significant differences in tumor weights; also recorded: did not differ
- Inhibition (%) Tumor Growth [1, 6]: 65%
- Inhibition (%) Tumor Growth ([1]; EtOH/P Oil, Gavage, 5 mg/d): 0%
- Inhibition (%) Tumor Growth ([1]; Liposomal, Aerosol, 5 mg/d): 70%
- Inhibition (%) Tumor Growth ([1]; Liposomal, Gavage, 3 mg/2Xd): 70%
- size of tumors less than aerosol only control group ([1]; aerosol α-TEA liposomes 5 mg/mouse daily, sacrifice day 25, 16 days after treatment initiation): 61%
- mean tumor volume reduced in comparison to aerosol control ([1]; day 9 of treatment): 23%
- mean tumor volume reduced in comparison to aerosol control ([1]; day 11 of treatment): 41%
- mean tumor volume reduced in comparison to aerosol control ([1]; day 13 of treatment): 50%
- mean tumor volume reduced in comparison to aerosol control ([1]; day 15 of treatment): 67%
- mean tumor volume reduced in comparison to aerosol control ([1]; day 17 of treatment): 61%
- reduced tumor growth ([1]; liposome aerosol, 36 µg compound per day, 21 days, day 15): 64%
- reduced tumor growth ([1]; liposome aerosol, 36 µg compound per day, 21 days, day 17): 76%
- reduced tumor growth ([1]; liposome aerosol, 36 µg compound per day, 21 days, day 19): 69%
- reduced tumor growth ([1]; liposome aerosol, 36 µg compound per day, 21 days, day 21): 67%
- reduced tumor growth ([1]; liposome gavage, 6 mg compound per day, 2 times per day, day 15): 85%
- reduced tumor growth ([1]; liposome gavage, 6 mg compound per day, 2 times per day, day 17): 85%
- reduced tumor growth ([1]; liposome gavage, 6 mg compound per day, 2 times per day, day 19): 80%
- reduced tumor growth ([1]; liposome gavage, 6 mg compound per day, 2 times per day, day 21): 70%
- apoptosis [2]: undergo apoptosis
- 84 kDa cleavage fragment of PARP ([3]; 5 µg/ml): only intact PARP protein was detected
- 84 kDa cleavage fragment of PARP ([3]; 10 µg/ml): evident
- 84 kDa cleavage fragment of PARP ([3]; 20 µg/ml): evident
- Inhibition (%) Metastases Lung [4, 6]: 71%
- Inhibition (%) Lung Metastases (number of lung tumor micrometastases reduced) ([4]; EtOH/P Oil, Gavage, 5 mg/d): 62%
- Inhibition (%) Lung Metastases ([4]; Aerosol, 5 mg/d, in comparison to aerosol control): 81%
- Inhibition (%) Lung Metastases ([4]; Gavage, 3 mg/2Xd): 59%
- micrometatstatic lung lesions ([4]; liposomal formulation via gavage, 6 mg compound per day, 21 days, left lung lobe): 21.5 /lung
- mean number of micrometastases (± S. E.) ([4]; liposomal α-TEA/aerosol, left lung lobe, N= 8): 11.4 ± 3.5
- numbers of micrometastases (± S. E.) ([4]; size 5-10 µm): 11.3± 1.8
- numbers of micrometastases (± S. E.) ([4]; size < 5 µm): 6.8±1.5
- numbers of micrometastases (± S. E.) ([4]; size >10 µm): 3.1±1.2
- mean values of the proliferation biomarker KI-67 reduced [5]: 56%
